These results are taken from patent US10611750B2, “Tetrahydroquinoline compositions as bet bromodomain inhibitors” (FORMA Therapeutics, Inc., priority 2013, dated 2020).

SMILES strings stand for the structures.

The subject of assay [1] is acute myelocytic leukemia (AML) cell line MV4-11. The assay can be described thus: Oncology cell growth assay (3-day proliferation, CellTiter-Glo). Particulars: Homo sapiens, MV4-11, 72 h, MV4-11 cells, 3000 cells/well, compounds listed under IC50 range headings, read-out: MV411 IC50 (gIC50, inhibition of proliferation). The format is cell-based. An outline of the steps: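 MV4-11 AML cells (RPMI 1640, 10% FBS) plated at 3000 cells/well and exposed 72 h to compound at final 10 to 0.0045 μM (3-fold series). Viability read by CellTiter-Glo luminescence; gIC50 from four-parameter logistic fit between DMSO control and no-cell background.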
On the technique in general: In ATP-based viability assays light output follows the ATP content of the culture.

Assay [2] has as its target T1, BRD4 Bromodomain 1 (BRD4 BD1) (Homo sapiens, UniProt O60885).
T1 construct: 44-168 and BRD4 BD2
The assay can be described thus: AlphaScreen binding assay, BRD4 BD1. Particulars: His-tagged BRD4 BD1 50 nM, biotinylated H4 (1-21) K5/8/12/16 tetra-acetylated peptide 50 nM, compounds listed under IC50 range headings. An outline of the steps: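 An AlphaScreen competition format was used with His-BRD4 BD1 or BD2 and biotin-H4 K5/8/12/16-acetyl peptide, each at matched final levels of 50 nM (BD1) or 100 nM (BD2). Incubation in HEPES/NaCl buffer with 0.1% BSA and 0.01% Triton X-100 ran ≥1 h before IC50 determination.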

As for `C[C@H]1CCc2c(ccc(-c3cnn(C4CCNCC4)n3)c2OC2CCC2)N1C(=O)C1CC1` [I-309, (S)-(5-cyclobutoxy-2-methyl-6-(2-(piperidin-4-yl)-2H-1,2,3-triazol-4-yl)-3,4-dihydroquinolin-1(2H)-yl)(cyclopropyl)methanone], the IC50 is < 500 nM in assay [1] and 1000 to 10000 nM in assay [2].
For `C[C@H]1CCc2c(ccc(-c3cn(C4CCNCC4)nn3)c2OC2CCC2)N1C(=O)C1CC1` [I-310, (S)-(5-cyclobutoxy-2-methyl-6-(1-(piperidin-4-yl)-1H-1,2,3-triazol-4-yl)-3,4-dihydroquinolin-1(2H)-yl)(cyclopropyl)methanone], the IC50 in assay [1] was < 500 nM; in assay [2], 100 to 1000 nM.
For `C[C@H]1CCc2c(ccc(-c3cnn(C4CCNCC4)n3)c2Oc2ccccc2)N1C(=O)C1CC1` [I-311, (S)-cyclopropyl(2-methyl-5-phenoxy-6-(2-(piperidin-4-yl)-2H-1,2,3-triazol-4-yl)-3,4-dihydroquinolin-1(2H)-yl)methanone] the same measures were < 500 nM and < 100 nM.
For `C[C@H]1CCc2c(ccc(-c3cn(C4CCNCC4)nn3)c2Oc2ccccc2)N1C(=O)C1CC1` [I-312, (S)-cyclopropyl(2-methyl-5-phenoxy-6-(1-(piperidin-4-yl)-1H-1,2,3-triazol-4-yl)-3,4-dihydroquinolin-1(2H)-yl)methanone] the same measures were < 500 nM and < 100 nM.
For `COC(=O)N1c2ccc(-c3csc(C4CNC4)n3)c(OC3CCC3)c2CC[C@@H]1C` [I-313, (S)-methyl 6-(2-(azetidin-3-yl)thiazol-4-yl)-5-cyclobutoxy-2-methyl-3,4-dihydroquinoline-1(2H)-carboxylate] the same measures were > 1000 nM and 100 to 1000 nM.
For the molecule `COC(=O)N1c2ccc(-c3csc(C4(O)CNC4)n3)c(OC3CCC3)c2CC[C@@H]1C` [I-314, (S)-methyl-5-cyclobutoxy-6-(2-(3-hydroxyazetidin-3-yl)thiazol-4-yl)-2-methyl-3,4-dihydroquinoline-1(2H)-carboxylate], the IC50 was > 1000 nM in assay [1] and 1000 to 10000 nM in assay [2].
The like results for `COC(=O)N1c2ccc(-c3cn(C)c(N4CCNCC4)n3)c(OC3CCC3)c2CC[C@@H]1C` [I-315, (S)-methyl 5-cyclobutoxy-2-methyl-6-(1-methyl-2-(piperazin-1-yl)-1H-imidazol-4-yl)-3,4-dihydroquinoline-1(2H)-carboxylate] were, in that order, < 500 nM and 100 to 1000 nM.
For `COC(=O)N1c2ccc(-c3csc(N4CCNCC4)n3)c(OC3CCC3)c2CC[C@@H]1C` [I-316, (S)-methyl 5-cyclobutoxy-2-methyl-6-(2-(piperazin-1-yl)thiazol-4-yl)-3,4-dihydroquinoline-1(2H)-carboxylate] the same measures were < 500 nM and 100 to 1000 nM.
The like results for `COC(=O)N1c2ccc(-c3csc(N4CC(O)C4)n3)c(OC3CCC3)c2CC[C@@H]1C` [I-317, (S)-methyl 5-cyclobutoxy-6-(2-(3-hydroxyazetidin-1-yl)thiazol-4-yl)-2-methyl-3,4-dihydroquinoline-1(2H)-carboxylate] were, in that order, 500 to 1000 nM and 100 to 1000 nM.
For the molecule `C[C@H]1CCc2c(ccc(-c3cn(C)nn3)c2Oc2cc(F)ccc2F)N1C(=O)C1CC1` [I-318, (S)-cyclopropyl(5-(2,5-difluorophenoxy)-2-methyl-6-(1-methyl-1H-1,2,3-triazol-4-yl)-3,4-dihydroquinolin-1(2H)-yl)methanone], the IC50 was < 500 nM in assay [1] and 100 to 1000 nM in assay [2].
For `C[C@H]1CCc2c(ccc(-c3cn(C)nn3)c2Oc2ccc(F)c(F)c2)N1C(=O)C1CC1` [I-319, (S)-cyclopropyl(5-(3,4-difluorophenoxy)-2-methyl-6-(1-methyl-1H-1,2,3-triazol-4-yl)-3,4-dihydroquinolin-1(2H)-yl)methanone] the same measures were < 500 nM and 1000 to 10000 nM.
For `C[C@H]1CCc2c(ccc(-c3cn(C)nn3)c2Oc2ccccc2F)N1C(=O)C1CC1` [I-320, (S)-cyclopropyl(5-(2-fluorophenoxy)-2-methyl-6-(1-methyl-1H-1,2,3-triazol-4-yl)-3,4-dihydroquinolin-1(2H)-yl)methanone] the same measures were < 500 nM and 100 to 1000 nM.
On to `C[C@H]1CCc2c(Oc3ccccc3)c(-c3cn(C)nn3)cc(F)c2N1C(=O)C1CC1` [I-321, (S)-cyclopropyl(8-fluoro-2-methyl-6-(1-methyl-1H-1,2,3-triazol-4-yl)-5-phenoxy-3,4-dihydroquinolin-1(2H)-yl)methanone], for which the values for the IC50 in assay [1] and in assay [2] were < 500 nM and 100 to 1000 nM, respectively.
Consider `COC(=O)N1c2c(F)cc(-c3cn(C)nn3)c(Oc3ccccc3)c2CC[C@@H]1C` [I-322, (S)-methyl 8-fluoro-2-methyl-6-(1-methyl-1H-1,2,3-triazol-4-yl)-5-phenoxy-3,4-dihydroquinoline-1(2H)-carboxylate], for which the IC50 is < 500 nM in assay [1] and 100 to 1000 nM in assay [2].
The like results for `CC(=O)N1c2c(F)cc(-c3cn(C)nn3)c(Oc3ccccc3)c2CC[C@@H]1C` [I-323, (S)-1-(8-fluoro-2-methyl-6-(1-methyl-1H-1,2,3-triazol-4-yl)-5-phenoxy-3,4-dihydroquinolin-1(2H)-yl)ethanone] were, in that order, < 500 nM and 1000 to 10000 nM.
For `C[C@H]1CCc2c(ccc(-n3cccn3)c2OC2CCC2)N1C(=O)C1CC1` [I-324, (S)-(5-cyclobutoxy-2-methyl-6-(1H-pyrazol-1-yl)-3,4-dihydroquinolin-1(2H)-yl)(cyclopropyl)methanone] the same measures were > 1000 nM and ≥ 10000 nM.
Turning to `C[C@H]1CCc2c(ccc(-n3cccn3)c2Oc2ccccc2)N1C(=O)C1CC1` [I-325, (S)-cyclopropyl(2-methyl-5-phenoxy-6-(1H-pyrazol-1-yl)-3,4-dihydroquinolin-1(2H)-yl)methanone], the IC50 is > 1000 nM in assay [1] and ≥ 10000 nM in assay [2].
The like results for `C[C@H]1CCc2c(ccc(-n3nccn3)c2OC2CCC2)N1C(=O)C1CC1` [I-326, (S)-(5-cyclobutoxy-2-methyl-6-(2H-1,2,3-triazol-2-yl)-3,4-dihydroquinolin-1(2H)-yl)(cyclopropyl)methanone] were, in that order, > 1000 nM and ≥ 10000 nM.
The like results for `C[C@H]1CCc2c(ccc(-n3nccn3)c2Oc2ccccc2)N1C(=O)C1CC1` [I-327, (S)-cyclopropyl(2-methyl-5-phenoxy-6-(2H-1,2,3-triazol-2-yl)-3,4-dihydroquinolin-1(2H)-yl)methanone] were, in that order, > 1000 nM and ≥ 10000 nM.
For `C[C@H]1CCc2c(ccc(-c3ncc(C4CCNCC4)[nH]3)c2OC2CCC2)N1C(=O)C1CC1` [I-328, (S)-(5-cyclobutoxy-2-methyl-6-(5-(piperidin-4-yl)-1H-imidazol-2-yl)-3,4-dihydroquinolin-1(2H)-yl)(cyclopropyl)methanone] the same measures were < 500 nM and 1000 to 10000 nM.
With `C[C@H]1CCc2c(ccc(-c3ncc(C4CCNCC4)[nH]3)c2Oc2ccccc2)N1C(=O)C1CC1` [I-329, (S)-cyclopropyl(2-methyl-5-phenoxy-6-(5-(piperidin-4-yl)-1H-imidazol-2-yl)-3,4-dihydroquinolin-1(2H)-yl)methanone], the IC50 was < 500 nM in assay [1] and 100 to 1000 nM in assay [2].
For `Cc1cc(Oc2c(-c3cnn(C4CCNCC4)c3)ccc3c2CC[C@H](C)N3C(=O)C2CC2)cc(C)n1` [I-330, (S)-cyclopropyl(5-(2,6-dimethylpyridin-4-yloxy)-2-methyl-6-(1-(piperidin-4-yl)-1H-pyrazol-4-yl)-3,4-dihydroquinolin-1(2H)-yl)methanone] the same measures were < 500 nM and 100 to 1000 nM.
For `Cc1cccc(Oc2c(-c3cnn(C4CCNCC4)c3)ccc3c2CC[C@H](C)N3C(=O)C2CC2)n1` [I-331, (S)-cyclopropyl(2-methyl-5-(6-methylpyridin-2-yloxy)-6-(1-(piperidin-4-yl)-1H-pyrazol-4-yl)-3,4-dihydroquinolin-1(2H)-yl)methanone], the IC50 was < 500 nM in assay [1] and 100 to 1000 nM in assay [2].
For `Cc1ccc(Oc2c(-c3cnn(C4CCNCC4)c3)ccc3c2CC[C@H](C)N3C(=O)C2CC2)c(C)n1` [I-332, (S)-cyclopropyl(5-(2,6-dimethylpyridin-3-yloxy)-2-methyl-6-(1-(piperidin-4-yl)-1H-pyrazol-4-yl)-3,4-dihydroquinolin-1(2H)-yl)methanone] the same measures were < 500 nM and 100 to 1000 nM.
Consider `COC(=O)N1c2ccc(-c3cnn(C4CCNCC4)c3)c(Oc3cccc(C)n3)c2CC[C@@H]1C` [I-333, (S)-methyl 2-methyl-5-(6-methylpyridin-2-yloxy)-6-(1-(piperidin-4-yl)-1H-pyrazol-4-yl)-3,4-dihydroquinoline-1(2H)-carboxylate], for which the IC50 in assay [1] was < 500 nM; in assay [2], 100 to 1000 nM.
On to `CC(=O)N1c2ccc(-c3cnn(C4CCNCC4)c3)c(Oc3cccc(C)n3)c2CC[C@@H]1C` [I-334, (S)-1-(2-methyl-5-(6-methylpyridin-2-yloxy)-6-(1-(piperidin-4-yl)-1H-pyrazol-4-yl)-3,4-dihydroquinolin-1 (2H)-yl)ethanone], for which the IC50 in assay [1] was < 500 nM; in assay [2], 1000 to 10000 nM.
For `COC(=O)N1c2ccc(-c3cnn(C4CCNCC4)c3)c(Oc3cccc(OC)n3)c2CC[C@@H]1C` [I-335, (S)-methyl 5-(6-methoxypyridin-2-yloxy)-2-methyl-6-(1-(piperidin-4-yl)-1H-pyrazol-4-yl)-3,4-dihydroquinoline-1(2H)-carboxylate] the same measures were < 500 nM and 100 to 1000 nM.
